According to patent US10202412B2, “β-D-2′-deoxy-2′-substituted-4′-substituted-2-substituted-N6-substituted-6-aminopurinenucleotides for the treatment of paramyxovirus and orthomyxovirus infections” (Atea Pharmaceuticals, Inc., priority 2016, dated 2019):
Where two headings read alike, the source gives them in different places.

How the values were obtained:
Format in all cases: cell-based
[1] = system: Respiratory syncytial virus (RSV) type A, strain A2 (ATCC VR-1540); assay: dNHBE assay: RSV virus yield reduction (EC90); conditions: human respiratory syncytial virus, RSV (A2) in dNHBE cells; concentration reducing virus yield by 1 log10; mean of at least two experiments
Procedure: (§1) Differentiated normal human bronchial epithelial (dNHBE) cells were grown on 6 mm mesh disks in transwell inserts to approximately 1.2×10^6 cells/disk and disks were transferred to individual wells of a 6-well plate. 1 mL of proprietary culture medium was added to the basolateral side of the cells and the apical side was exposed to a humidified 95% air/5% CO2 environment. Cells were cultured at 37° C. for one day and then the mucin layer was removed from the apical side of the cells by repeated (3×) washing with 500 μL 30 mM HEPES buffered saline solution and culture medium on the basal side was replenished.
Respiratory syncytial virus (RSV) type A, strain A2 (ATCC VR-1540), previously passaged in MA-104 cells to make working stock cultures, was diluted 1/10 in medium before infection, using a multiplicity of infection (MOI) of ≤0.03 CCID50 per cell.
(§2) Various concentrations of test compounds in medium were applied in duplicate to the apical (140 μL) and basal sides (1 mL) for a 1 hour pre-treatment, followed by addition of 140 μL of virus inoculum to each cell insert on the apical side. The viral inoculum and treatments were removed after 2 hours. Control cells were treated with placebo (culture medium only). Following infection, the apical medium was removed and the basal side was replaced with fresh compound in medium. The cells were maintained at the air-liquid interface, and cell culture medium on the basal side was replaced daily with fresh medium containing test compound. After 4 days, the liquid was removed from the basal side and discarded and virus released into the apical compartment was harvested by the addition of 500 μL of culture medium. The medium was thoroughly mixed, then removed, diluted 1:1 with 40% sucrose and stored at ≤−80° C.
To determine the virus titer from each treated cell culture, MA-104 cells were seeded in 96-well plates and grown overnight (37° C.) to confluence. Samples containing virus were diluted in 10-fold increments in infection medium and 200 μL of each dilution transferred into respective wells of a 96-well microtiter plate. Four microwells were used for each dilution to determine 50% viral endpoints. After 7 days of incubation, each well was scored positive for virus if any cytopathic effect was observed as compared with the uninfected control. The virus dose that was able to infect 50% of the cell cultures (CCID50 per 0.1 mL) was calculated by the Reed-Muench method. This was repeated in duplicate for each test sample, so that values reported are an average of 2 independent CCID5o determinations. Untreated, uninfected cell controls were tested as negative controls. Statistical differences in the titers were evaluated with a one-way analysis of variance (ANOVA) followed by Dunnett's multiple comparisons test compared with the untreated virus controls.
(§3) Concentrations of test compounds that reduced virus yield by 1 log10 (90% effective concentration; EC90) were calculated by regression analysis. The reported EC90 value is the mean of at least two experiments. Potential toxicity of the test compounds was evaluated microscopically.

[2] = system: Differentiated normal human bronchial epithelial (dNHBE) cells; assay: dNHBE assay: toxicity evaluated microscopically; set-up: unit not given here
Procedure: as §1, §2, §3

[3] = system: respiratory syncytial virus A2 (ATCC VR-1540); assay: Cytopathic effect assay with RSV A2 in MA-104 cells; conditions: human respiratory syncytial virus, MA104, CPE inhibition, neutral red
Procedure: Test compounds were dissolved in DMSO and then prepared in eight half-log dilutions in MEM medium with 50 μg/mL gentamicin and 2% FBS (MA-104 cells only). Each dilution was added to 5 wells of a 96-well plate with 80-100% confluent cells (either MA-104 cells or HEp-2 cells). Three wells of each dilution were infected with respiratory syncytial virus A2 (ATCC VR-1540) and two wells remained uninfected as toxicity controls. After maximum cytopathic effect (CPE) was observed microscopically in untreated virus control wells, plates were stained with neutral red dye for approximately 2 hours, then supernatant dye was removed and the incorporated dye was extracted in 50:50 Sorensen citrate buffer/ethanol and read on a spectrophotometer. Optical density values were normalized based on cell and virus controls, then the concentration of test compound required to inhibit CPE by 50% (EC50) was calculated by regression analysis. The reported EC50 value is the mean of at least two experiments. The concentration of compound that caused 50% CPE in the absence of virus was similarly calculated to determine cytotoxicity (CC50).

[4] = system: human bone marrow progenitor cells (BFU-E); assay: Human bone marrow progenitor cell assay, BFU-E; conditions: BFU-E-specific culture, 14-day incubation, colony counts, read-out: Bone Marrow Stem Cell IC50 BFU-E
Procedure: (§4) Select compounds were tested in an in vitro selectivity study with human bone marrow progenitor cells. Fresh human bone marrow progenitor cells (Invitrogen) suspended in either BFU-E or GM-CSF-specific culture medium were added, at 10^5 cells/well, to triplicate serial dilutions of TA in 6-well plates. After 14-day incubations, colony counts were used to determine […] values. BFU-E colonies were confirmed using the benzidene technique. No cytotoxicity was observed from any of the tested compounds.

[5] = system: human bone marrow progenitor cells (CFU-GM); assay: Human bone marrow progenitor cell assay, CFU-GM (GM-CSF-specific culture); conditions: 14-day incubation, colony counts, read-out: Bone Marrow Stem Cell IC50 CFU-GM
Procedure: as §4

iPS cardiomyocytes = assay: iPS cardiomyocyte assay (XTT viability); conditions: 72 h, 3 days incubation, XTT staining
Procedure: Select compounds were tested in an in vitro selectivity study with iPS cardiomyocytes. iPS cardiomyocytes (Cellular Dynamics) were seeded in microliter plates at 1.5×10^4 cells per well. After 48-hr incubation, cells were washed and maintenance medium containing 30 serially diluted TA was added in triplicate. After incubating for an additional 3 days, cellviability was measured by staining with XTT and CC50 values were calculated. No cytotoxicity was observed from any of the tested compounds.

| Compound | EC90 [1] [µM] | Visual toxicity [2] | EC50 [3] [µM] | other results |
| --- | --- | --- | --- | --- |
| CC(C)OC(=O)[C@H](C)NP(=O)(OC[C@@]1(CCl)O[C@@H](n2ccc(N)nc2=O)[C@H](F)C1O)Oc1ccccc1 (stereo in doubt) [Z] | 2 | >177 | > 177 |  |
| CN(C)c1nc(N)nc2c1ncn2[C@@H]1O[C@](C)(CO)[C@@H](O)[C@H]1F [A, (2R,3R,4R,5R)-5-(2-Amino-6-(dimethylamino)-9H-purin-9-yl)-4-fluoro-2-(hydroxymethyl)-2-methyltetrahydrofuran-3-ol] | 142 | >306 | > 306 |  |
| CNc1nc(F)nc2c1ncn2[C@@H]1O[C@](C)(CO[P@@](=O)(N[C@@H](C)C(=O)OC(C)C)Oc2ccccc2)[C@@H](O)[C@H]1F [AH, (S)-Isopropyl 2-(((S)-(((2R,3R,4R,5R)-5-(6-(methylamino)-2-fluoro-9H-purin-9-yl)-4-fluoro-3-hydroxy-2-methyltetrahydrofuran-2-yl)methoxy)(phenoxy)phosphoryl)amino) propanoate] | 0.12 | >1.7 |  | IC50 ([4]; Homo sapiens, 336 h): > 100 µM; IC50 ([5]; Homo sapiens, CFU-GM, 336 h): > 100 µM; IC50 (iPS cardiomyocytes): > 100 µM |
| CNc1nc(N)nc2c1ncn2[C@@H]1O[C@](CCl)(CO[P@@](=O)(N[C@@H](C)C(=O)OC(C)C)Oc2ccccc2)[C@@H](O)[C@H]1F [AI, (S)-Isopropyl 2-(((S)-(((2R,3R,4R,5R)-5-(2-amino-6-(methylamino)-9H-purin-9-yl)-2-(chloromethyl)-4-fluoro-3-hydroxytetrahydrofuran-2-yl)methoxy)(phenoxy)phosphoryl)amino) propanoate] | 0.13 | >1.6 |  | IC50 ([4]; Homo sapiens, 336 h): > 100 µM; IC50 ([5]; Homo sapiens, CFU-GM, 336 h): > 100 µM; IC50 (iPS cardiomyocytes): > 100 µM |
| Cc1cn([C@H]2C[C@H](N=[N+]=[N-])[C@@H](CO)O2)c(=O)[nH]c1=O [AZT, reference compound] |  |  |  | IC50 [4]: 2.59 µM; IC50 [5]: 4.56 µM |
| CC(C)OC(=O)[C@H](C)NP(=O)(OC[C@@]1(C)O[C@@H](n2cnc3c(N(C)C)nc(N)nc32)[C@H](F)[C@@H]1O)Oc1ccccc1 (stereo partly drawn) [B, (2S)-Isopropyl 2-(((((2R,3R,4R,5R)-5-(2-amino-6-(dimethylamino)-9H-purin-9-yl)-4-fluoro-3-hydroxy-2-methyltetrahydrofuran-2-yl)methoxy)(phenoxy)phosphoryl)-amino) propanoate] | 5.9 | >167 | < 168 |  |
| CN(C)c1nc(N)nc2c1ncn2[C@@H]1O[C@@](CO)(CCl)[C@@H](O)[C@H]1F [Compound K, (2R,3R,4R,5R)-5-(2-Amino-6-(dimethylamino)-9H-purin-9-yl)-2-(chloromethyl)-4-fluoro-2-(hydroxymethyl)tetrahydrofuran-3-ol] | 74.8 | >277 | > 225 |  |
| CC(C)OC(=O)[C@H](C)NP(=O)(OC[C@@]1(CCl)O[C@@H](n2cnc3c(N(C)C)nc(N)nc32)[C@H](F)[C@@H]1O)Oc1ccccc1 (stereo partly drawn) [Compound L, (2S)-Isopropyl 2-(((((2R,3R,4R,5R)-5-(2-amino-6-(dimethylamino)-9H-purin-9-yl)-2-(chloromethyl)-4-fluoro-3-hydroxytetrahydrofuran-2-yl)methoxy)(phenoxy)phosphoryl)amino)propanoate] | 13.5 | 158 | > 159 |  |
| CNc1nc(N)nc2c1ncn2[C@@H]1O[C@](CCl)(COP(=O)(N[C@@H](C)C(=O)OC(C)C)Oc2ccccc2)[C@@H](O)[C@H]1F (stereo partly drawn) [Compound N, (2S)-Isopropyl 2-(((((2R,3R,4R,5R)-5-(2-amino-6-(methylamino)-9H-purin-9-yl)-2-(chloromethyl)-4-fluoro-3-hydroxytetrahydrofuran-2-yl)methoxy)(phenoxy)-phosphoryl)amino)propanoate] | 0.83 | >162 |  |  |
| CC[C@]1(CO)O[C@@H](n2cnc3c(NC)nc(N)nc32)[C@H](F)[C@@H]1O [Compound Q, (2R,3R,4R,5R)-5-(2-Amino-6-(methylamino)-9H-purin-9-yl)-2-ethyl-4-fluoro-2-(hydroxymethyl)tetrahydrofuran-3-ol] | 7.3 | >306 |  |  |
| CC[C@]1(COP(=O)(N[C@@H](C)C(=O)OC(C)C)Oc2ccccc2)O[C@@H](n2cnc3c(NC)nc(N)nc32)[C@H](F)[C@@H]1O (stereo partly drawn) [Compound R, (2S)-Isopropyl 2-(((((2R,3R,4R,5R)-5-(2-amino-6-(methylamino)-9H-purin-9-yl)-2-ethyl-4-fluoro-3-hydroxytetrahydrofuran-2-yl)methoxy)(phenoxy)-phosphoryl)amino) propanoate] | 2.3 | >167 |  |  |
| CN(C)c1nc(N)nc2c1ncn2[C@@H]1O[C@](C)(CO)[C@@H](O)[C@@H]1F [Compound S] | > 300 | >307 | > 306 |  |
| CC[C@]1(CO)O[C@@H](n2cnc3c(N(C)C)nc(N)nc32)[C@@H](F)[C@@H]1O [Compound U, (2R,3R,4S,5R)-5-(2-Amino-6-(dimethylamino)-9H-purin-9-yl)-2-ethyl-4-fluoro-2-(hydroxymethyl)tetrahydrofuran-3-ol] | > 294 | >294 | > 294 |  |
| CC[C@]1(COP(=O)(N[C@@H](C)C(=O)OC(C)C)Oc2ccccc2)O[C@@H](n2cnc3c(N(C)C)nc(N)nc32)[C@@H](F)[C@@H]1O (stereo partly drawn) [Compound V, (2S)-Isopropyl 2-(((((2R,3R,4S,5R)-5-(2-amino-6-(dimethylamino)-9H-purin-9-yl)-2-ethyl-4-fluoro-3-hydroxytetrahydrofuran-2-yl)methoxy)(phenoxy)phosphoryl)-amino) propanoate] | 44.8 | 164 | > 164 |  |
| COc1cc2nc(N3CCN(C(=O)C4COc5ccccc5O4)CC3)nc(N)c2cc1OC (stereo not drawn) [Doxazosin, reference compound] |  |  |  | IC50 (iPS cardiomyocytes): 12.5 µM |
| CC(C)C(=O)Nc1nc(N(C)C)c2ncn([C@@H]3O[C@@](CO)(CCl)[C@@H](O)[C@H]3F)c2n1 [X] |  |  | > 232 |  |
| CC(C)OC(=O)[C@H](C)NP(=O)(OC[C@@]1(CCl)O[C@@H](n2cnc3c(N(C)C)nc(NC(=O)C(C)C)nc32)[C@H](F)[C@@H]1O)Oc1ccccc1 (stereo partly drawn) [Y] |  |  | > 142 |  |
